Test results published in patent US20220313780A1, “METHODS AND COMPOSITIONS FOR TREATING INFLAMMATORY CONDITIONS” (THE SCRIPPS RESEARCH INSTITUTE, priority 2019, published 2022).

System: IL-1β
Assay: IL-1β release (Quantikine ELISA) from THP1 cells treated with LPS and ATP
Format: cell-based, human
Conditions: APC 4 μg/mL, TR47 50 μM, P3R 50 μM or TR47/P3R 8 nM & 500 nM for 1 hour before LPS and ATP
Description: THP1 cells were plated at a final concentration of 1×10^6/mL in 96 well plates and incubated with PMA (0.5 μM) for 3 hours 37° C. in supplemented RPMI. Media was subsequently changed every 24 hours for 3 days. Selected wells were treated with APC (4 μg/mL), TR47 (50 μM), P3R (50 μM), or TR47/P3R (8 nM & 500 nM, respectively) for 1 hour, washed with DPBS, and incubated with LPS (1 μg/mL) for 3 hours at 37° C. in serum-free RPMI. Cells were washed with DPBS and incubated with ATP (5 mM) in the presence or absence of 10 μM YVAD (caspase 1 inhibitor) for 45 minutes, and the resulting cell supernatant was used in the IL-1(3 Quantikine ELISA following manufacturer's (R&D) directions measuring absorbance, and the concentration of IL-1(3 was calculated following measurement of the standard curve. Data points represent mean±SEM of at least 3 independent experiments. *P<0.05 (vs. LPS+ATP).
[…]. THP1 cells were plated at a final concentration of 1×10^6/mL in 96 well plates and incubated with PMA (0.5 μM) for 3 hours 37° C. in supplemented RPMI. […] Cell supernatants were carefully collected and frozen until assayed using the IL-1β Quantikine ELISA following the manufacturer's (R&D Systems) directions, measuring absorbance. The concentration of IL-1β was calculated following measurement of the standard curve according to the manufacturer's directions.

Sequence | generation and release of IL-1β
GAPPNSFEEFPFSALEGWTGATIT [P3R, PAR3-derived 24-mer peptide] | significantly suppressed
NPNDKYEPFWEDEEKNESGL [TR47, PAR1-derived 20 amino acid peptide] | significantly suppressed
